Measurements: patent US5844102A, “Glycohydrolase inhibitors, their preparation and use thereof” (University of Maryland Baltimore County, priority 1994, dated 1998)
Read-outs that look alike come from different tables or passages of the source.

Columns and labels:
α-mannosidase (jackbean) = target: T1, α-mannosidase (jackbean) (Canavalia ensiformis, UniProt C0HJB3); experiment: α-mannosidase inhibition, p-nitrophenol-α-mannopyranoside substrate; type: biochemical; details: 25° C., citrate buffer 0.05M, pH 4.5; read-out: Ki (inhibition constant), α-Mannosidase
T1 construct: purchased Sigma Chemical Company
T1 sequence (C0HJB3 1-562 limits assumed): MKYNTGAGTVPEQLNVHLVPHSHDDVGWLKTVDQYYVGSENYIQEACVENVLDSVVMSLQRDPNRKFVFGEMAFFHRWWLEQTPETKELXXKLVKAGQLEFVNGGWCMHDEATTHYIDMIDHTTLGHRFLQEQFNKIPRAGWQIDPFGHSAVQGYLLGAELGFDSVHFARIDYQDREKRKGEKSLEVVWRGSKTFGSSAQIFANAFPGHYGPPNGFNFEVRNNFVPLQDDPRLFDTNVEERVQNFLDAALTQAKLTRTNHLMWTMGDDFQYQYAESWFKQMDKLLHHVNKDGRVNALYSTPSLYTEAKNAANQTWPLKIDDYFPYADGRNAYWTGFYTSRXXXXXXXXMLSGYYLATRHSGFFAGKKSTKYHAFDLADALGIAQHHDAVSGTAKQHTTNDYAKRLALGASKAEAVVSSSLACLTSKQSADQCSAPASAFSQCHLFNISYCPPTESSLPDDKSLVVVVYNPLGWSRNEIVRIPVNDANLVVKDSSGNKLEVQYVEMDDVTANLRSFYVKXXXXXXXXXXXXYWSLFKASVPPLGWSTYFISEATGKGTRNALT
T1 sequence (C0HJB3 563-981 limits assumed): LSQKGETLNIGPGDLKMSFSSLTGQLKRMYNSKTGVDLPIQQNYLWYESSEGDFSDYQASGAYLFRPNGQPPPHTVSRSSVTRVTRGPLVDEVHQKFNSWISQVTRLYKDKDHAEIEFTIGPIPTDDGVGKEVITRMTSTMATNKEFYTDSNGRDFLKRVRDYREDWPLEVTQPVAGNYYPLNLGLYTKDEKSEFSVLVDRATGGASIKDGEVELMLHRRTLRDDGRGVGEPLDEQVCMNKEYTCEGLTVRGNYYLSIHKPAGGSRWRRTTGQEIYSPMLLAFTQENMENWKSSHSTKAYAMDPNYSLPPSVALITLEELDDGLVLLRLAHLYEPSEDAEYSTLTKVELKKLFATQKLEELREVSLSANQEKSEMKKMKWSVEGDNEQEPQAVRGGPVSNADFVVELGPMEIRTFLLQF
Experimental: (§1) The enzymes α-glucosidase (yeast), β-glucosidase (almonds), isomaltase (bakers yeast) and α-mannosidase (jackbean) were purchased from Sigma Chemical Company. Glucoamylase was isolated by the present inventors by expressing the gene from Aspergillus awamori in yeast, by methods well known in the art. Enzyme assays were performed by using p-nitrophenol -α (or β)-glucopyranosides as substrate at 37° C. in phosphate buffer (0.05M, pH 6.8) for α (β)-glucosidase and isomaltase, and p-nitrophenol-α-mannopyranoside as substrate at 25° C. in citrate (0.05M, pH 4.5) buffer for α-mannosidase. Glucoamylase was assayed using maltose as substrate at 50° C. in sodium acetate buffer (0.05M, pH 4.5).
(§2) Michaelis-Menten constant, Km, was calculated using software Grafit (Erithacus Software Ltd.). Ki was calculated by plotting K^appm vs. [Inhibitor]. FIG. 2(a) represents a plot of K^appm vs. [Inhibitor], wherein the inhibitor is the monosaccharide sugar analog isofagomin, obtained for five different glycosidases.

[1] = target: T2, isomaltase (bakers yeast) (Saccharomyces cerevisiae, UniProt P53051); experiment: isomaltase inhibition, p-nitrophenol glucopyranoside substrate; type: biochemical
T2 construct: purchased Sigma Chemical Company
Experimental: as §1
as §2, with “glycosidases. FIG. 2(b) represents a similar plot of K^appm vs. [Inhibitor], wherein the inhibitor is the disaccharide sugar analog of formula II, obtained for five different glycosidases.” for “glycosidases.”

lysosomal α-glucosidase = target: T3, lysosomal α-glucosidase (Rattus norvegicus, UniProt Q6P7A9); details: cited from earlier work
T3 construct: host or cells: liver (in vivo)

[2] = in vivo; cited from earlier work
Glucoamylase = target: T4, Glucoamylase (Aspergillus awamori, UniProt P69327); experiment: glucoamylase inhibition, maltose substrate; type: biochemical
T4 construct: made in house; host or cells: yeast
Experimental: as §1, §2

β-glucosidase (almonds) = experiment: β-glucosidase inhibition, p-nitrophenol-β-glucopyranoside substrate; type: biochemical; details: for Ki: 37° C., phosphate buffer 0.05M, pH 6.8, read-out: Ki (inhibition constant), β-Glucosidase; for inhibition of β-glucosidase, in words: hydrochloride
Experimental: as §1
as §2, with “glycosidases. FIG. 2(b) represents a similar plot of K^appm vs. [Inhibitor], wherein the inhibitor is the disaccharide sugar analog of formula II, obtained for five different glycosidases.” for “glycosidases.”

[3] = tested on: cellulase degradation of wood; experiment: wood treatment, cellulase degradation; details: approximately 10 mg/kg of wood per day, several months of treatment
Experimental: A wood treatment composition containing approximately 10 mg/kg of wood per day of isofagomin is administered to a piece of wood. After several months of treatment, the piece of wood is analyzed.

[4] = tested on: glycohydrolase degradation of crop; experiment: agricultural crop treatment, glycohydrolase degradation; details: approximately 10 mg/kg of crop per day, several months of treatment
Experimental: A composition for treating agricultural crops containing approximately 10 mg/kg of crop per day of isofagomin is administered to a crop. After several months of treatment, the crop is analyzed.

α-glucosidase (yeast) = target: T5, α-glucosidase (yeast) (Saccharomyces cerevisiae, UniProt P53341); experiment: α-glucosidase inhibition, p-nitrophenol-α-glucopyranoside substrate; type: biochemical; details: 37° C., phosphate buffer 0.05M, pH 6.8; read-out: Ki (inhibition constant), α-Glucosidase
T5 construct: purchased Sigma Chemical Company
Experimental: as §1, §2

[5] = maltose substrate, 50° C., sodium acetate buffer 0.05M, pH 4.5, read-out: Ki (inhibition constant), Glucoamylase
[6] = 37° C., phosphate buffer 0.05M, pH 6.8, read-out: Ki (inhibition constant), Isomaltase

T2 sequence (P53051 whole entry): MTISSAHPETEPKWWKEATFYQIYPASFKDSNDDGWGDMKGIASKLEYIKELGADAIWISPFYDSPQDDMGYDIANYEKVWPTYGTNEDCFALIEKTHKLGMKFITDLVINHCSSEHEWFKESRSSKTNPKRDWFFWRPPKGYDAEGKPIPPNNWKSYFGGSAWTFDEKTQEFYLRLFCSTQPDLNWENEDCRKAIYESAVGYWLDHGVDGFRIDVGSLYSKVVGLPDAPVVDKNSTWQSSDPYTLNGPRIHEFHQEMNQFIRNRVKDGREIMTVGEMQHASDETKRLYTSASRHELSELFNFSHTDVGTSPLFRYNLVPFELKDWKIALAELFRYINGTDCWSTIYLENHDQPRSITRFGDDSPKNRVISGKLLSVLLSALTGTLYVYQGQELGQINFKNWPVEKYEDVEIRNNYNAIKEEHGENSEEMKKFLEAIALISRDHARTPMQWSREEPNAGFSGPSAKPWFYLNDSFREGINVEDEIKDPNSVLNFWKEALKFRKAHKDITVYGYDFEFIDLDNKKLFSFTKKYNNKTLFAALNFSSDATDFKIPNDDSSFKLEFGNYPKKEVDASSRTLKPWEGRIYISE
T4 sequence (P69327 25-640): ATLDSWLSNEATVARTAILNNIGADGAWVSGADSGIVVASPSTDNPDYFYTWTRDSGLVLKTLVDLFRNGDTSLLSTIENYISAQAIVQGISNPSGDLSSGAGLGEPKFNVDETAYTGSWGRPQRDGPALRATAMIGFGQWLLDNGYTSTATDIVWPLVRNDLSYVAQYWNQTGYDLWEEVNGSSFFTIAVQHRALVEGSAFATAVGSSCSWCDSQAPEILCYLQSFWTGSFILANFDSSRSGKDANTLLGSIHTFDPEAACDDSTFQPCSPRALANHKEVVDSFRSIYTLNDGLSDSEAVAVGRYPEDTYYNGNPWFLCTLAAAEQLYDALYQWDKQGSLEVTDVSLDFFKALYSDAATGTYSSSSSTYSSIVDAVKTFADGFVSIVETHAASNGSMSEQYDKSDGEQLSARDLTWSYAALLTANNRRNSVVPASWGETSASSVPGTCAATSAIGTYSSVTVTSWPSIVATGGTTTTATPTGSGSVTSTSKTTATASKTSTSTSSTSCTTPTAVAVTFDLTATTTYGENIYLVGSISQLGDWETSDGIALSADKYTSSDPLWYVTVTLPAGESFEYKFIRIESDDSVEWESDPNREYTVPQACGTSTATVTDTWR
T5 sequence (P53341 whole entry): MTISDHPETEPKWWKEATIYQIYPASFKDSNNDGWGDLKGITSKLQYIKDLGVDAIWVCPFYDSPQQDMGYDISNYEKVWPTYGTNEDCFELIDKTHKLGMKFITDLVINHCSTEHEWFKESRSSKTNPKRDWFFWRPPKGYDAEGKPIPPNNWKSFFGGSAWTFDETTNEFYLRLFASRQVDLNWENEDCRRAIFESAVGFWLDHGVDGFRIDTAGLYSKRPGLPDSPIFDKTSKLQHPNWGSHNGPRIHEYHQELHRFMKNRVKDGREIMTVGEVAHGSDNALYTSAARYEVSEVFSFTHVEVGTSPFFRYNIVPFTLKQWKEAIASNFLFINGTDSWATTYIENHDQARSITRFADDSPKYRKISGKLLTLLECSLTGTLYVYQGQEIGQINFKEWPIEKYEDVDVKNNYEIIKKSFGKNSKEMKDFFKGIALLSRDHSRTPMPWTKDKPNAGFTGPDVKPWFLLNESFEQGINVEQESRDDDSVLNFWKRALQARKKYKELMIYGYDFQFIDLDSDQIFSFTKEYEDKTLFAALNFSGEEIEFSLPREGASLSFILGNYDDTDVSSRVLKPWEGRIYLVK
T3 sequence (Q6P7A9 70-953): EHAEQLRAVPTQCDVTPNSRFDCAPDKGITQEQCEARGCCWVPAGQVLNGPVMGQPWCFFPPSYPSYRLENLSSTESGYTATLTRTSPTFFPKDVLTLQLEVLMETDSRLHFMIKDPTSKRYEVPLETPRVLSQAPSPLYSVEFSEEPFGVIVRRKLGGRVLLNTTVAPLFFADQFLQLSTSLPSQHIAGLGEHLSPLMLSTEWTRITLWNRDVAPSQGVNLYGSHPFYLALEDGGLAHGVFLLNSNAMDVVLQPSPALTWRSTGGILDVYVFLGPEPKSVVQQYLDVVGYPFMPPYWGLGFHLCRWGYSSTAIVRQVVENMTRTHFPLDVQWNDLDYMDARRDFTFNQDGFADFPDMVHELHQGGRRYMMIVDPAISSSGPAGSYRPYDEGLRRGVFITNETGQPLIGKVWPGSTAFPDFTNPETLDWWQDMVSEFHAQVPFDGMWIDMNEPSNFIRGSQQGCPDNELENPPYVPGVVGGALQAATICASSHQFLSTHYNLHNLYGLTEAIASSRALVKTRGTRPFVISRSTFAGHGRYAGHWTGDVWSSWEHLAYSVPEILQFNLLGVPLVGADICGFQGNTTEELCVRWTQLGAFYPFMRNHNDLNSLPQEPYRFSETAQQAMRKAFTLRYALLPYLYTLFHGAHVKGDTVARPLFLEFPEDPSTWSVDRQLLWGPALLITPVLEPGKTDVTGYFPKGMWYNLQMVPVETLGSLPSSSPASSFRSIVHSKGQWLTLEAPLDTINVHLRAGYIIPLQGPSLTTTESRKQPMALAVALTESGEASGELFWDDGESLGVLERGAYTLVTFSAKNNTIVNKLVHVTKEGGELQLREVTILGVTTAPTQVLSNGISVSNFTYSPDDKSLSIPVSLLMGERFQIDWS

Compound `C[C@H]1O[C@H](O[C@H]2[C@H](O)[C@@H](O)[C@@H](O[C@H]3[C@H](O)[C@@H](O)C(O)O[C@@H]3CO)O[C@@H]2CO)[C@H](O)[C@@H](O)[C@@H]1N[C@H]1C=C(CO)[C@@H](O)[C@H](O)[C@H]1O` (stereo partly shown) [Acarbose, acarbose, reference compound] has a Ki (α-mannosidase (jackbean)) of 7600 µM and a Ki [1] greater than 100 µM.

In the case of `O[C@H]1[C@H](O)[C@@H](O)CN2CC[C@H](O)[C@H]12` [Castanospermine], the “accumulation of lysosomal glycogen” value (lysosomal α-glucosidase; at the minimum effective dose (1 mg/kg)) is listed as “Accumulation of lysosomal glycogen has been found” and the “minimum effective dose required to reduce the glycemic response to sucrose” value [2] is listed as 1 mg/kg.

With `OC[C@H]1NC[C@@H](O)[C@@H](O)[C@@H]1O` [Deoxymannojirimycin, reference compound] the Ki (Glucoamylase; [5]) was 66 µM, the Ki [1] was 49.3 µM and the Ki (β-glucosidase (almonds)) was […].

With `OC[C@H]1NC[C@H](O)[C@@H](O)[C@@H]1O` [Deoxynojirimycin, reference compound] the Ki (Glucoamylase; [5]) was 9.8 µM, the Ki [1] was 11.2 µM and the Ki (β-glucosidase (almonds)) was […].

With `Cl.OC[C@H]1CNC[C@@H](O)[C@@H]1O` [MB, (3R,4R,5R)-3,4-dihydroxy-5-hydroxymethyl-piperidine hydrochloride] the “cellulase degradation of treated wood” value [3] was “No cellulase degradation is detected”, the Ki (α-mannosidase (jackbean)) was 775 µM and the Ki (Glucoamylase; [5]) was 3.7 µM. For the same compound, the “glycohydrolase degradation of treated crop” value [4] was “No glycohydrolase degradation is detected”, the Ki (α-glucosidase (yeast)) was 85.9 µM and the Ki [1, 6] was 7.2 µM. The Ki (β-glucosidase (almonds)) was 0.11 µM, the “mode of inhibition of β-glucosidase (Lineweaver-Burk plot)” value (β-glucosidase (almonds); FIG. 1(a), three inhibitor concentrations) was “competitive inhibition” and the “inhibition of β-glucosidase, in words” value (β-glucosidase (almonds)) was “surprisingly strong inhibitor”. For the same compound, the “inhibition of β-glucosidase, in words” value (β-glucosidase (almonds); listed as monosaccharide analog) was “particularly strong inhibitor”.

For `CO[C@H]1O[C@H](CN2C[C@H](O)[C@@H](O)[C@H](O)[C@H]2CO)[C@@H](O)[C@H](O)[C@H]1O` [MDL, 1,5-dideoxy-1,5-[(6-deoxy-1-O-methyl-6-α,D-glucopyranosyl)imino]-D-glucitol], the “effect on liver lysosomal α-glucosidase activity or glycogen accumulation” value (lysosomal α-glucosidase; dose 10-fold higher than required to reduce the glycemic response to sucrose) is listed as “did not affect”.

For `CO[C@H]1O[C@H](CCN2C[C@H](CO)[C@@H](O)[C@H](O)C2)[C@@H](O)[C@H](O)[C@H]1O` [TMJ, Methyl 6,7-dideoxy-7-[(3R,4R,5R)-3,4-dihydroxy-5-hydroxymethyl-piperidinyl]-α-D-gluco-heptopyranoside], the Ki (α-mannosidase (jackbean)) was 1230 µM, the Ki (Glucoamylase) was 0.063 µM and the Ki (α-glucosidase (yeast)) was 58.8 µM. For the same compound, the Ki [1, 6] was 103 µM.
